Experimental findings from EP2769738B1, “Conjugated TLR7 and/or TLR8 and TLR2 polycationic agonists” (Invivogen, priority 2013, dated 2014) are described below.

Values joined by “and” are separate entries in the source; they are usually repeats but may differ in a detail not shown here. Equal entries are not always repeated.

A short description of series [1]: Determination of nanoparticle (lipoplex) size by dynamic light scattering. The series is classed as physicochemical. Particulars: ratio 3:24 (w:w); for Conformity (C)/ Non-conformity (NC) / Mean Diameter (nm): complexes with pDNA; for Mean Diameter (nm): dynamic light scattering at 25°C; for Mean Diameter (nm) / PDI: triplicate measurements; for PDI: polydispersity index of complexes with pDNA, 25°C. The protocol: • 1. Preparative HPLC Method: Unless otherwise indicated, the compounds described herein were purified by RP-MPLC ARMEN® Spot Flash Liquid Chromatography (ARMEN Instrument, Saint Ave, France) on a preparative column (SVF D26) packed with 25-40 µm C18 resin (Merck chimie SAS), by applying a linear gradient of 0-10% MeCN in NH4OAc (10 mM) solution (pH = 9) over 60 min at a 15 mL/min flow rate. The purification was monitored at 254 nm. Suitable fractions were pooled and lyophilised. • 2. Proton NMR Spectra: Unless otherwise indicated, all ^1H NMR spectra were run on a Bruker series 300 MHz instrument. Where so characterized, all observed protons are reported as parts-per-million (ppm) downfield from tetramethylsilane (TMS) or other internal reference in the appropriate solvent indicated. NMR spectra were recorded on a Brucker 300 spectrometer. For ^1H (300 MHz) spectra δ values were referenced to CDCI3-d1 (7.26 ppm), DMSO- d6 (2.50 ppm), D2O-d2 (4.79 ppm) or MeOD-d4 (3.31 ppm). The peak patterns are indicated as follows: s: singlet, sl: large singlet, d: doublet, t: triplet, q: quartet, m: multiplet. • 3. Mass Spectra (MS): Analyses were run on an Agilent Model 6130 quadrupole MS. Unless otherwise indicated, all mass spectral data for starting materials, intermediates and/or exemplary compounds are reported as mass/charge (m/z), having an (M+H)^+ molecular ion. The molecular ion reported was obtained by electrospray detection method (commonly referred to as an ESI MS). Compounds having an isotopic atom, such as bromine and the like, are generally reported according to the detected isotopic pattern, as appreciated by those skilled in the art. • 4. Particle size: Particle size was determined using a Malvern Nanosizer (Malvern, Worcestershire, UK) and Malvern ZETASIZER.RTM. (Malvern, Worcestershire, UK). • 5. Naming Convention The compounds disclosed and described herein have been named using the naming convention provided with Chem-Draw Ultra 11.0 software, available in Chem. Office. In some instances, compounds were named with the term "spermine" inserted where appropriate. For example, where the spermine is substituted with Boc, "N1,N5,N10-TriBoc-spermine" is added to the Chem-Draw nomenclature in the appropriate place. Chem-Draw utilizes the ISIS Draw software compound naming convention, as appreciated by those skilled in the art.
For pDNA:TLR7-TLR2 polyamine molecules complexes, a ratio pDNA:TLR7-TLR2 polyamine molecules of 3:24 (w:w) was prepared in serum-free culture medium or in 5% glucose. The TLR7-TLR2 conjugated compound of interest was prediluted in serum-free culture medium or in 5% glucose and incubated for 5 minutes at room temperature, prior to the addition of an endotoxin-free, salt-free preparation of pDNA. In these experiments, the pBsr2pCpGLacZh plasmid was used in the pDNA:TLR7-TLR2 polyamine molecule complexes. The pDNA:TLR7-TLR2 polyamine molecule mixtures were incubated at room temperature for 30 minutes to allow the formation of the complex. The control used in these experiments was the cationic lipid transfection agent LyoVec™ (InvivoGen) prepared in a similar manner.
In order to confirm that TLR7-TLR2 polyamine molecules complex DNA, lipoplex size was determined. The physical characterization of complex was achieved by dynamic light scattering using the analytical equipment for laser diffraction Zetasizer Nano-ZS (Malvern). pDNA:TLR7-TLR2 polyamine molecule complexes were prepared as described above. Subsequently, 50µl of pDNA: TLR7-TLR2 polyamine molecule complexes were placed into a disposable sizing cuvette and measurements were made under conditions defined according to manufacturer's instructions. The measurements were made at 25°C in triplicate and a size distribution report was obtained. […]

Series [2] has as its system B16-F1 tumor. As to the kind of experiment: Mouse B16-F1 tumor model, molecule alone. The series is classed as in vivo, C57BL/6 mice. As to conditions: intra-tumoral, 3 injections. The protocol: Measurements were performed under gas anesthesia.
The second group received intra-tumoral injections of CL413 molecule alone (a TLR7-TLR2 Pam2CSK4-based molecule). Third and forth groups received intra-tumoral injections of the TLR2 ligand, Pam2CSK4 alone, and the TLR7 ligand alone, respectively. A fifth group received a combined treatment of Pam2CSK4 and TLR7 ligand, in solution at the equivalent molecule quantity of the respective TLR2 and TLR7 moieties in CL413 (in 100µl Bionolyte G5® with Pluronic® F-68 2%) for a total of 3 injections.

In series [3] the test system is HEK293 cells. As to the kind of experiment: Cell transfection with SEAP plasmid, HEK293. Particulars: Figure 5A; in complex with pVitro14 LGFP SEAP plasmid, 48 hours, SEAP reporter gene expression. The series is classed as cell-based, human. On the procedure: (§1) The TLR7-TLR2 molecules were tested for their ability as polyamine molecules to transport plasmid DNA (pDNA) into cells. The pVitro14 LGFP SEAP plasmid (InvivoGen) was complexed to TLR7-TLR2 polyamine molecules and to the control cationic lipid transfection agent, LyoVec™ (InvivoGen). The human HEK293 (ATCC, CRL-1573) and mouse B16-F1 melanoma (ATCC, CRL-6323) cell lines were seeded at a density of 50 000 cells/well and 20 000 cells/well respectively, in the absence or presence of different volumes of the plasmid encoding for the SEAP protein in complex with TLR7-TLR2 polyamine molecules for 48 hours at 37°C and 10% CO2. Transfection efficiency was assessed by measuring SEAP reporter gene expression: 20 µl of supernatant was sampled and mixed with 180 µl of QUANTI-Blue™ Detection (InvivoGen). In the presence of alkaline phosphatase SEAP, the color of QUANTI-Blue™ changes from pink to purple/blue. The intensity of the blue hue reflects the activity of SEAP. The levels of SEAP secretion were determined quantitatively by reading the OD at 620-655 nm using a spectrophotometer, iMark™ Microplate Reader (BIO-RAD).
(In a reporter assay the amount or activity of a reporter protein is the signal.)

Series [4] has as its system B16-F1 cells. As to the kind of experiment: Cell transfection with SEAP plasmid, B16-F1. Particulars: Figure 5B; in complex with pVitro14 LGFP SEAP plasmid, 48 hours, SEAP reporter gene expression. The series is classed as cell-based, mouse. The protocol: as §1

On to `CCCCCCCCCCCCCCCC(=O)OCC(CSC[C@@H](N)C(=O)N[C@@H](CO)C(=O)N[C@@H](CCCCN)C(=O)N[C@@H](CCCCN)C(=O)N[C@@H](CCCCN)C(=O)N[C@H](CCCCN)C(=O)Nc1ccc(Cn2c(O)nc3c(N)nc(NCCCC)nc32)cc1)OC(=O)CCCCCCCCCCCCCCC` (stereo in doubt) [CL413, (6S,9S,12S,15S,18S,21R)-6,25-diamino-21-(4-((6-amino-2-(butylamino)-8-hydroxy-9H-purin-9-yl)methyl)phenylcarbamoyl)-12,15,18-tris(4-aminobutyl)-9-(hydroxylmethyl)-7,10, 13,16,19-pentaoxo-4-thia-8,11,14,17,20-pentaazapentacosane-1,2-diyl dipalmitate], for which, in series [1], the “Conformity (C)/ Non-conformity (NC)” value is “C (ranged between 140 and 200 nm in diameter were considered to show conformity)”; the “Mean Diameter (nm)” value was 140,1 nm and 140,2 nm and 139,1 nm; the PDI is 0,178 and 0,187 and 0,229. Besides, the tumor volume result in series [2] (Figure 8A, by day 23, compared to Pam2CSK4 alone, TLR7 ligand alone and vehicle control) was “no increase in tumor volume”. Moreover, the “mice still alive (survival)” value in series [2] (Figure 8B, by day 42) was 100%. Also, the “ability to transfect HEK293 cells” value in series [3] is “lack the ability to transfect cells”. For the same molecule, the “ability to transfect B16-F1 cells” value in series [4] is on record as “lack the ability to transfect cells”.
For the molecule `CCCCCCCCCCCCCCCC(=O)N[C@@H](CSCC(COC(=O)CCCCCCCCCCCCCCC)OC(=O)CCCCCCCCCCCCCCC)C(=O)N[C@@H](CO)C(=O)N[C@@H](CCCCN)C(=O)N[C@@H](CCCCN)C(=O)N[C@@H](CCCCN)C(=O)N[C@@H](CCCCN)C(=O)Nc1ccc(Cn2c(O)nc3c(N)nc(NCCCC)nc32)cc1` (stereo partly drawn) [CL534, ((6R,9S,12S,15S,18S,21S)-25-amino-21-(4-((6-amino-2-(butylamino)-8-hydroxy-9H-purin-9-yl)methyl)phenylcarbamoyl)-12,15,18-tris(4-aminobutyl)-9-(hydroxylmethyl)-7,10,13,16,19-pentaoxo-6-palmitamido-4-thia-8,11,14,17,20-pentaazapentacosane-1,2-diyl dipalmitate], in series [1], the “Conformity (C)/ Non-conformity (NC)” value was “C (ranged between 140 and 200 nm in diameter were considered to show conformity)”; the “Mean Diameter (nm)” value was 165,5 nm and 187,1 nm and 182,3 nm; the PDI was 0,352 and 0,394 and 0,354. The “ability to transfect HEK293 cells” value in series [3] was “lack the ability to transfect cells”. Besides, in series [4], the “ability to transfect B16-F1 cells” value is reported as “lack the ability to transfect cells”.
